Reference: patent US4742057A, “Antiallergic thiazole compounds” (Fujisawa Pharmaceutical Co., Ltd., priority 1985, dated 1988)

System: anaphylactic asthma in guinea pigs
Assay: Antagonistic action on anaphylactic asthma in guinea pigs (prophylactic effect, survival after antigen spraying)
Assay type: in vivo, guinea pigs (male Hartley-strain)
Details: Cavia porcellus; oral, 30 min before egg-white albumin aerosol; survival for not less than 2 hours; passively sensitized guinea pigs

Structure (SMILES) | ED50 [mg/kg]
CC(=O)Nc1nc(CN2CCC(c3c[nH]c4ccccc34)CC2)cs1 [Compound A, 2-Acetylamino-4-[4-(3-indolyl)piperidinomethyl]thiazole] | 0.95
CS(=O)(=O)Nc1nc(CN2CCC(c3c[nH]c4ccccc34)CC2)cs1 [Compound B, 4-[4-(3-Indolyl)piperidinomethyl]-2-mesylaminothiazole] | 0.086
CS(=O)(=O)Nc1nc(CCN2CCC(c3c[nH]c4ccccc34)CC2)cs1 [Compound C, 4-[2-[4-(3-Indolyl)piperidino]ethyl]2-mesylaminothiazole] | 0.02
CCC(=O)Nc1nc(CN2CCC(c3c[nH]c4ccccc34)CC2)cs1 [Compound D, 4-[4-(3-Indolyl)piperidinomethyl]-2-propionylaminothiazole] | 0.92
Nc1nc(CCCN2CCC(c3c[nH]c4ccccc34)CC2)cs1 [Compound F, 4-[3-[4-(3-Indolyl)piperidino]propyl]-2-aminothiazole] | 0.3
CS(=O)(=O)Nc1nc(CCCN2CCC(c3c[nH]c4ccccc34)CC2)cs1 [Compound G, 4-[3-[4-(3-Indolyl)piperidino]propyl]-2-mesylaminothiazole] | 0.03
